Data as given in patent publication US11066396B2 (priority 2016, dated 2021).
pIC50: −log10 of the molar value.

Assays:
HDAC8 = HDAC8 (Homo sapiens (Human), UniProt Q9BY41); details: read-out: HDAC8 IC50
HDAC1 = HDAC1 (Homo sapiens (Human), UniProt Q13547); details: read-out: HDAC1 IC50
Chain of HDAC1 (Q13547 whole entry): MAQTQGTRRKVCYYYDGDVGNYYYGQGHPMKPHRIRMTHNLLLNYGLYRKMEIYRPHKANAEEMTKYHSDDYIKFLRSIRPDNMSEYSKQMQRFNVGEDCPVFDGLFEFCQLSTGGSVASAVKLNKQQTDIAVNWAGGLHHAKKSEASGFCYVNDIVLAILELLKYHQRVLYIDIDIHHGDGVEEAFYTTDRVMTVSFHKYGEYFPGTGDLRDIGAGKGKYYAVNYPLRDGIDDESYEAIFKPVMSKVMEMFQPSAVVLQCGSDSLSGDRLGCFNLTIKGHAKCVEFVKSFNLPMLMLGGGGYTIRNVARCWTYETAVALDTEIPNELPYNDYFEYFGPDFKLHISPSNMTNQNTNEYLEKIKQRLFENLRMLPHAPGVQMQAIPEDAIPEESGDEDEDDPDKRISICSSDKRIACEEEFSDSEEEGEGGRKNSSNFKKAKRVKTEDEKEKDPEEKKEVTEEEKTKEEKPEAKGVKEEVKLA

Chain of HDAC8 (Q9BY41 whole entry): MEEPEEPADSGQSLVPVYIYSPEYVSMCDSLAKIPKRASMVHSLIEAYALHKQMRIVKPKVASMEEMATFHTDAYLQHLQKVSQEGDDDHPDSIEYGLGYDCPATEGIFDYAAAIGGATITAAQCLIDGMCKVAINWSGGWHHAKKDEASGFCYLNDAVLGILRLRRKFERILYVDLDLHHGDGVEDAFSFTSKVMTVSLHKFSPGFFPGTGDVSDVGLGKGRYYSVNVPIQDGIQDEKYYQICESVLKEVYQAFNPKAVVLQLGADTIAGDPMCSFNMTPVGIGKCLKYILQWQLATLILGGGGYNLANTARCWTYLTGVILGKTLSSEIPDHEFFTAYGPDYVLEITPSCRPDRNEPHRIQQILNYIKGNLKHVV

SMILES	pIC50 (HDAC8)	pIC50 (HDAC1)
O=C1NCCN(c2ccc(-c3noc(C(F)(F)F)n3)cn2)C1c1cccc(F)c1 (racemic) [Example 132, 3-(3-fluorophenyl)-4-(5-(5-(trifluoromethyl)-1,2,4-oxadiazol-3-yl)pyridin-2-yl)piperazin-2-one]	6.20	–
FC(F)(F)c1cccc(C2COCCN2c2ccc(-c3noc(C(F)(F)F)n3)cn2)c1 (racemic) [Example 146, 4-(5-(5-(trifluoromethyl)-1,2,4-oxadiazol-3-yl)pyridin-2-yl)-3-(3-(trifluoromethyl)phenyl)morpholine]	4.70	–
FC(F)(F)c1nc(-c2ccc(N3CCCCC3c3ccccn3)nc2)no1 (racemic) [Example 147, 3-(6-(2-(pyridin-2-yl)piperidin-1-yl)pyridin-3-yl)-5-(trifluoromethyl)-1,2,4-oxadiazole]	5.49	–
FC(F)(F)c1nc(-c2ccc(N3CCCC3c3ccncc3)nc2)no1 (racemic) [Example 150, 3-(6-(2-(pyridin-4-yl)pyrrolidin-1-yl)pyridin-3-yl)-5-(trifluoromethyl)-1,2,4-oxadiazole]	5.74	–
FC(F)(F)c1nc(-c2ccc(N3CCCC3c3cccnc3)nc2)no1 (racemic) [Example 151, 3-(6-(2-(pyridin-3-yl)pyrrolidin-1-yl)pyridin-3-yl)-5-(trifluoromethyl)-1,2,4-oxadiazole]	5.80	–
OCC1CC(c2ccccc2)N(c2ccc(-c3noc(C(F)(F)F)n3)cn2)C1 (racemic) [Example 152, (5-phenyl-1-(5-(5-(trifluoromethyl)-1,2,4-oxadiazol-3-yl)pyridin-2-yl)pyrrolidin-3-yl)methanol]	6.08	–
FC(F)(F)c1nc(-c2ccc(N3CCCC3c3ccccn3)nc2)no1 (racemic) [Example 154, 3-(6-(2-(pyridin-2-yl)pyrrolidin-1-yl)pyridin-3-yl)-5-(trifluoromethyl)-1,2,4-oxadiazole]	5.47	–
Cc1nonc1C1CCCN1c1ccc(-c2noc(C(F)(F)F)n2)cn1 (racemic) [Example 155, 3-(6-(2-(4-methyl-1,2,5-oxadiazol-3-yl)pyrrolidin-1-yl)pyridin-3-yl)-5-(trifluoromethyl)-1,2,4-oxadiazole]	5.74	–
FC(F)(F)c1nc(-c2ccc(N3CCCCC3c3cccnc3)nc2)no1 (racemic) [Example 157, 3-(6-(2-(pyridin-3-yl)piperidin-1-yl)pyridin-3-yl)-5-(trifluoromethyl)-1,2,4-oxadiazole]	5.48	–
CCOC(=O)N1CCN(c2ccc(-c3noc(C(F)(F)F)n3)cn2)C(c2ccccc2)C1 (racemic) [Example 159, ethyl 3-phenyl-4-(5-(5-(trifluoromethyl)-1,2,4-oxadiazol-3-yl)pyridin-2-yl)piperazine-1-carboxylate]	5.40	–
FC(F)(F)c1nc(-c2ccc(CNCC3CN(Cc4ccccc4)CCO3)nc2)no1 (racemic) [Example 453, 1-(4-benzylmorpholin-2-yl)-N-({5-[5-(trifluoromethyl)-1,2,4-oxadiazol-3-yl]pyridin-2-yl}methyl)methanamine]	5.72	–
FC(F)(F)c1nc(-c2ccc(CNCC3CN(c4ccccc4)CCO3)nc2)no1 (racemic) [Example 454, 1-(4-phenylmorpholin-2-yl)-N-({5-[5-(trifluoromethyl)-1,2,4-oxadiazol-3-yl]pyridin-2-yl}methyl)methanamine]	5.77	–
Cc1nc2cc(F)ccc2n1Cc1ccc(-c2noc(C(F)(F)F)n2)cn1 [Example 466, 5-fluoro-2-methyl-1-({5-[5-(trifluoromethyl)-1,2,4-oxadiazol-3-yl]pyridin-2-yl}methyl)-1H-benzimidazole]	–	6.08
O=c1cnc2ccccc2n1Cc1ccc(-c2noc(C(F)(F)F)n2)cn1 [Example 467, 1-({5-[5-(trifluoromethyl)-1,2,4-oxadiazol-3-yl]pyridin-2-yl}methyl)quinoxalin-2(1H)-one]	–	6.77
